This passage reports IC50 results from ChEMBL document CHEMBL4177629, “Synthesis, anticancer, structural, and computational docking studies of 3-benzylchroman-4-one derivatives” (Bioorg Med Chem Lett, 2017).

The test system of one assay is Lu1. In words: Cytotoxicity against human Lu1 cells by SRB assay. Format: functional, cell-based.
Settings: not given
What is called IC50 is the concentration that gives 50% inhibition. `COc1ccc(C[C@@H]2COc3cc(OC)c(C)c(O)c3C2=O)c(O)c1` had a half-inhibitory concentration (IC50) of 0.51 to 0.66 µM.

A further assay has as its system KB. In words: Cytotoxicity against human KB cells by SRB assay. Format: functional, cell-based.
Settings: not given
For orientation: The SRB assay estimates cell density from bound dye.
`COc1ccc(C[C@@H]2COc3cc(OC)c(C)c(O)c3C2=O)c(O)c1` showed an IC50 of 0.51 to 0.66 µM.

The subject of another assay is SK-MEL-2. In words: Cytotoxicity against human SK-MEL-2 cells by SRB assay. In kind it is functional, cell-based.
Settings: not given
As for `COc1ccc(C[C@@H]2COc3cc(OC)c(C)c(O)c3C2=O)c(O)c1`, the 50% inhibitory concentration (IC50) was in the range of 0.51 to 0.66 µM.

The next assay concerns BT-549. In words: Cytotoxicity against human BT549 cells assessed as reduction in cell viability after 24 hrs by MTT assay. In kind it is functional, cell-based. Conditions: BT-549, 24 h. For orientation: Tetrazolium assays rely on reduction of a dye to a coloured formazan, in cell work by metabolically active cells.
For the molecule `COc1ccc2c(c1)OCC(Cc1ccc(OC)c(O)c1)C2=O` (stereo not given), the IC50 came to 30.6 µM.
The same measure, in the same setting: then `O=C1c2ccccc2OCC1Cc1ccc(O)cc1` (stereo not given), with 20.1 µM.
Turning to `O=C1c2ccccc2OCC1Cc1ccc(Cl)cc1` (stereo not given), the IC50 stood at 69.3 µM.
Take `Cc1ccc(CC2COc3ccccc3C2=O)cc1` (stereo not given): the IC50 was found to be 42.2 µM.
Same read-out and setting: with `Cc1ccc2c(c1)OCC(Cc1ccc(O)cc1)C2=O` (stereo not given) the figure was 28.7 µM; with `COc1ccc(CC2COc3ccc(C)cc3C2=O)cc1` (stereo not given), more than 100 µM; with `COc1ccc(CC2COc3ccccc3C2=O)c(OC)c1` (stereo not given), 61.9 µM.
Same read-out and setting: with `COc1ccc(CC2COc3ccccc3C2=O)cc1OC` (stereo not given) the figure was more than 100 µM; with `COc1ccc(CC2COc3cc(C)ccc3C2=O)cc1` (stereo not given), 42.1 µM; with `COc1ccc(CC2COc3ccccc3C2=O)c(OC)c1OC` (stereo not given), more than 100 µM.
Still for that read-out and setting: then `O=C1c2ccccc2OCC1Cc1ccc(F)cc1` (stereo not given), with more than 200 µM; and `COc1ccc(CC2COc3ccccc3C2=O)cc1` (stereo not given), with more than 100 µM; and `COc1ccc(CC2COc3ccccc3C2=O)cc1O` (stereo not given), with more than 100 µM.
Take `COc1ccc(CC2COc3cccc(OC)c3C2=O)cc1O` (stereo not given): the IC50 is more than 200 µM.
As for `COc1ccc2c(c1)OCC(Cc1ccc(O)cc1)C2=O` (stereo not given), the IC50 stood at 24.3 µM.

Another assay relates to HeLa. In words: Cytotoxicity against human HeLa cells assessed as reduction in cell viability after 24 hrs by MTT assay. Format: functional, cell-based.
Settings: not given
In the case of `COc1ccc2c(c1)OCC(Cc1ccc(OC)c(O)c1)C2=O` (stereo not given), the IC50 stood at 50.1 µM.
Still for that read-out and setting: then `O=C1c2ccccc2OCC1Cc1ccc(O)cc1` (stereo not given), with 42.8 µM; and `O=C1c2ccccc2OCC1Cc1ccc(Cl)cc1` (stereo not given), with 61.9 µM; and `Cc1ccc(CC2COc3ccccc3C2=O)cc1` (stereo not given), with 48.9 µM.
Still for that read-out and setting: with `Cc1ccc2c(c1)OCC(Cc1ccc(O)cc1)C2=O` (stereo not given) the figure was 43 µM; with `COc1ccc(CC2COc3ccc(C)cc3C2=O)cc1` (stereo not given), 76.3 µM.
With `COc1ccc(CC2COc3ccccc3C2=O)c(OC)c1` (stereo not given), the IC50 came out at 38.3 µM.
Still for that read-out and setting: with `COc1ccc(CC2COc3ccccc3C2=O)cc1OC` (stereo not given) the figure was more than 100 µM; with `COc1ccc(CC2COc3cc(C)ccc3C2=O)cc1` (stereo not given), 68.3 µM.
On the same count and under the same terms, then `COc1ccc(CC2COc3ccccc3C2=O)c(OC)c1OC` (stereo not given), with more than 100 µM; and `O=C1c2ccccc2OCC1Cc1ccc(F)cc1` (stereo not given), with more than 200 µM.
Same read-out and setting: then `COc1ccc(CC2COc3ccccc3C2=O)cc1` (stereo not given), with more than 100 µM.
For `COc1ccc(CC2COc3ccccc3C2=O)cc1O` (stereo not given), the IC50 was 20.4 µM.
The same measure, in the same setting: with `COc1ccc(CC2COc3cccc(OC)c3C2=O)cc1O` (stereo not given) the figure was more than 200 µM.
Still for that read-out and setting: then `COc1ccc2c(c1)OCC(Cc1ccc(O)cc1)C2=O` (stereo not given), with 50.4 µM.

The test system of a further assay is Vero. In words: Cytotoxicity against African green monkey Vero cells assessed as reduction in cell viability after 24 hrs by MTT assay. Format: cell-based. Conditions: Chlorocebus sabaeus.
Consider `COc1ccc2c(c1)OCC(Cc1ccc(OC)c(O)c1)C2=O` (stereo not given), for which the IC50 was more than 200 µM.
Same read-out and setting: with `O=C1c2ccccc2OCC1Cc1ccc(O)cc1` (stereo not given) the figure was more than 200 µM; with `O=C1c2ccccc2OCC1Cc1ccc(Cl)cc1` (stereo not given), more than 200 µM; with `Cc1ccc(CC2COc3ccccc3C2=O)cc1` (stereo not given), more than 200 µM.
Same read-out and setting: then `Cc1ccc2c(c1)OCC(Cc1ccc(O)cc1)C2=O` (stereo not given), with more than 200 µM; and `COc1ccc(CC2COc3ccc(C)cc3C2=O)cc1` (stereo not given), with more than 200 µM; and `COc1ccc(CC2COc3ccccc3C2=O)c(OC)c1` (stereo not given), with more than 200 µM.
Regarding `COc1ccc(CC2COc3ccccc3C2=O)cc1OC` (stereo not given), the IC50 is more than 200 µM.
On the same count and under the same terms, then `COc1ccc(CC2COc3cc(C)ccc3C2=O)cc1` (stereo not given), with more than 200 µM; and `COc1ccc(CC2COc3ccccc3C2=O)c(OC)c1OC` (stereo not given), with more than 200 µM.
On the same count and under the same terms, then `O=C1c2ccccc2OCC1Cc1ccc(F)cc1` (stereo not given), with more than 200 µM; and `COc1ccc(CC2COc3ccccc3C2=O)cc1` (stereo not given), with more than 200 µM; and `COc1ccc(CC2COc3ccccc3C2=O)cc1O` (stereo not given), with more than 200 µM.
As to `COc1ccc(CC2COc3cccc(OC)c3C2=O)cc1O` (stereo not given), the IC50 is more than 200 µM.
On the same count and under the same terms, with `COc1ccc2c(c1)OCC(Cc1ccc(O)cc1)C2=O` (stereo not given) the figure was more than 200 µM.

Molecular target in a further assay: not listed separately
In words: Inhibition of glutathione S-transferase (unknown origin). Details: species or system Homo sapiens.
Settings: not given
Turning to `COc1ccc2c(c1)C(=O)[C@@H](Cc1cc(O)cc(O)c1O)CO2`, half-maximal inhibition (IC50) was put at 17.1 µM.
`O=C1c2cc(O)ccc2OC[C@@H]1Cc1cc(O)cc(O)c1O`: the IC50 was 16.5 µM.
